Data taken from patent publication US10485235B2, “Aryloxypyrimidinyl ethers as herbicides” (FMC Corporation, priority 2015, dated 2019).

Assays:
Format in all cases: in vivo
[1] = tested on: galium (catchweed bedstraw, Galium aparine); assay: Test A postemergence, galium; conditions: postemergence, 0 to 100 scale, 0 is no effect, 100 is complete control, approximately 10 days
Outline: (§1)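 Planted seeds in loam soil mixed with sand; sprayed soil directly (pre). Grew seedlings to one- to two-leaf stage, 2–10 cm; sprayed foliage (post). Held in greenhouse ~10 days. Rated injury visually vs untreated controls, 0–100.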

[2] = tested on: ryegrass, Italian (Italian ryegrass, Lolium multiflorum); assay: Test A postemergence, Italian ryegrass; conditions: postemergence, 0 to 100 scale, 0 is no effect, 100 is complete control, approximately 10 days
Outline: as §1

[3] = tested on: barnyardgrass (Echinochloa crus-galli); assay: Test A preemergence, barnyardgrass; conditions: Preemergence, 0 to 100 scale (0 no effect, 100 complete control)
Outline: as §1

[4] = tested on: wheat (Triticum aestivum); assay: Test A postemergence, wheat; conditions: postemergence, 0 to 100 scale, 0 is no effect, 100 is complete control, approximately 10 days
Outline: as §1

[5] = tested on: pigweed (Amaranthus retroflexus); assay: Test A postemergence, pigweed; conditions: postemergence, 0 to 100 scale, 0 is no effect, 100 is complete control, approximately 10 days
Outline: as §1

[6] = tested on: ryegrass, Italian (Italian ryegrass, Lolium multiflorum); assay: Test A preemergence, Italian ryegrass; conditions: Preemergence, 0 to 100 scale (0 no effect, 100 complete control)
Outline: as §1

kochia (Kochia scoparia) [7] = assay: Test A postemergence, kochia; conditions: postemergence, 0 to 100 scale, 0 is no effect, 100 is complete control, approximately 10 days
Outline: as §1

[8] = tested on: barnyardgrass (Echinochloa crus-galli); assay: Test B flooded paddy test, barnyardgrass; conditions: 250 g ai/ha, Flood; visual rating after 13 to 15 days; scale 0 to 100, 0 is no effect, 100 is complete control
Outline: (§2)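 Visual injury scored 0 (no effect) to 100 (complete control) relative to controls 13-15 days after treatment in greenhouse. Treatment: test compound added into paddy water of pots flooded 3 cm over soil, holding 2-leaf-stage plants; water level kept constant.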

[9] = tested on: ragweed (common ragweed, Ambrosia elatior); assay: Test A postemergence, ragweed; conditions: postemergence, 0 to 100 scale, 0 is no effect, 100 is complete control, approximately 10 days
Outline: as §1

rice (Oryza sativa) = assay: Test B flooded paddy test, rice; conditions: 250 g ai/ha, Flood; visual rating after 13 to 15 days; scale 0 to 100, 0 is no effect, 100 is complete control
Outline: as §2

[10] = tested on: barnyardgrass (Echinochloa crus-galli); assay: Test A postemergence, barnyardgrass; conditions: postemergence, 0 to 100 scale, 0 is no effect, 100 is complete control, approximately 10 days
Outline: as §1

kochia (Kochia scoparia) [11] = assay: Test A preemergence, kochia; conditions: Preemergence, 0 to 100 scale (0 no effect, 100 complete control)
Outline: as §1

[12] = tested on: blackgrass (Alopecurus myosuroides); assay: Test A postemergence, blackgrass; conditions: postemergence, 0 to 100 scale, 0 is no effect, 100 is complete control, approximately 10 days
Outline: as §1

corn (Zea mays) = assay: Test A postemergence, corn; conditions: postemergence, 0 to 100 scale, 0 is no effect, 100 is complete control, approximately 10 days
Outline: as §1

[13] = tested on: ducksalad (Heteranthera limosa); assay: Test B flooded paddy test, ducksalad; conditions: 250 g ai/ha, Flood; visual rating after 13 to 15 days; scale 0 to 100, 0 is no effect, 100 is complete control
Outline: as §2

[14] = tested on: sedge, umbrella (small-flower umbrella sedge, Cyperus difformis); assay: Test B flooded paddy test, umbrella sedge; conditions: 250 g ai/ha, Flood; visual rating after 13 to 15 days; scale 0 to 100, 0 is no effect, 100 is complete control
Outline: as §2

[15] = tested on: foxtail, giant (giant foxtail, Setaria faberii); assay: Test A preemergence, giant foxtail; conditions: Preemergence, 0 to 100 scale (0 no effect, 100 complete control)
Outline: as §1

[16] = tested on: ragweed (common ragweed, Ambrosia elatior); assay: Test A preemergence, ragweed; conditions: Preemergence, 0 to 100 scale (0 no effect, 100 complete control)
Outline: as §1

[17] = tested on: foxtail, giant (giant foxtail, Setaria faberii); assay: Test A postemergence, giant foxtail; conditions: postemergence, 0 to 100 scale, 0 is no effect, 100 is complete control, approximately 10 days
Outline: as §1

[18] = tested on: pigweed (Amaranthus retroflexus); assay: Test A preemergence, pigweed; conditions: Preemergence, 0 to 100 scale (0 no effect, 100 complete control)
Outline: as §1

SMILES	Plant response rating, Galium ([1]; 125 g ai/ha)	Plant response rating, Galium ([1]; 500 g ai/ha)	Plant response rating, Ryegrass, Italian ([2]; 125 g ai/ha)	Plant response rating, Ryegrass, Italian ([2]; 500 g ai/ha)	Plant response rating, Barnyardgrass ([3]; 125 g ai/ha)	Plant response rating, Barnyardgrass ([3]; 500 g ai/ha)	Plant response rating, Wheat ([4]; 125 g ai/ha)	Plant response rating, Wheat ([4]; 500 g ai/ha)	Plant response rating, Pigweed ([5]; 125 g ai/ha)	Plant response rating, Pigweed ([5]; 500 g ai/ha)	Plant response rating, Ryegrass, Italian ([6]; 125 g ai/ha)	Plant response rating, Ryegrass, Italian ([6]; 500 g ai/ha)	Plant response rating, Kochia (kochia (Kochia scoparia) [7]; 125 g ai/ha)	Plant response rating, Kochia (kochia (Kochia scoparia) [7]; 500 g ai/ha)	Plant response rating, Barnyardgrass [8]	Plant response rating, Ragweed ([9]; 125 g ai/ha)	Plant response rating, Ragweed ([9]; 500 g ai/ha)	Plant response rating, Rice (rice (Oryza sativa))	Plant response rating, Barnyardgrass ([10]; 125 g ai/ha)	Plant response rating, Barnyardgrass ([10]; 500 g ai/ha)	further results
CC(C)CCOc1c(Br)cccc1Oc1ncc(Cl)cn1 [Compound 12]	70	100	0	30	70	100	0	20	70	100	0	40	90	100	0	10	20	0	10	100	Plant response rating, Kochia (kochia (Kochia scoparia) [11]; 125 g ai/ha): 0; Plant response rating, Kochia (kochia (Kochia scoparia) [11]; 500 g ai/ha): 70; Plant response rating, Blackgrass ([12]; 125 g ai/ha): 20; Plant response rating, Blackgrass ([12]; 500 g ai/ha): 60; Plant response rating, Corn (corn (Zea mays); 125 g ai/ha): 30; Plant response rating, Corn (corn (Zea mays); 500 g ai/ha): 30; Plant response rating, Ducksalad [13]: 0; Plant response rating, Sedge, Umbrella [14]: 0; Plant response rating, Foxtail, Giant ([15]; 125 g ai/ha): 90; Plant response rating, Foxtail, Giant ([15]; 500 g ai/ha): 100; Plant response rating, Ragweed ([16]; 125 g ai/ha): 0; Plant response rating, Ragweed ([16]; 500 g ai/ha): 0; Plant response rating, Foxtail, Giant ([17]; 125 g ai/ha): 10; Plant response rating, Foxtail, Giant ([17]; 500 g ai/ha): 100; Plant response rating, Pigweed ([18]; 125 g ai/ha): 40; Plant response rating, Pigweed ([18]; 500 g ai/ha): 100
FC(F)C(F)(F)C(F)(F)C(F)(F)COc1c(Br)cccc1Oc1ncc(Cl)cn1 [Compound 53]	90	100	20	70	60	100	10	30	100	100	20	80	100	100	0	40	80	15	40	100	Plant response rating, Kochia (kochia (Kochia scoparia) [11]; 125 g ai/ha): 20; Plant response rating, Kochia (kochia (Kochia scoparia) [11]; 500 g ai/ha): 90; Plant response rating, Blackgrass ([12]; 125 g ai/ha): 30; Plant response rating, Blackgrass ([12]; 500 g ai/ha): 60; Plant response rating, Corn (corn (Zea mays); 125 g ai/ha): 10; Plant response rating, Corn (corn (Zea mays); 500 g ai/ha): 30; Plant response rating, Ducksalad [13]: 90; Plant response rating, Sedge, Umbrella [14]: 80; Plant response rating, Foxtail, Giant ([15]; 125 g ai/ha): 100; Plant response rating, Foxtail, Giant ([15]; 500 g ai/ha): 100; Plant response rating, Ragweed ([16]; 125 g ai/ha): 0; Plant response rating, Ragweed ([16]; 500 g ai/ha): 20; Plant response rating, Foxtail, Giant ([17]; 125 g ai/ha): 30; Plant response rating, Foxtail, Giant ([17]; 500 g ai/ha): 100; Plant response rating, Pigweed ([18]; 125 g ai/ha): 80; Plant response rating, Pigweed ([18]; 500 g ai/ha): 100
N#Cc1cccc(Oc2ncc(Cl)cn2)c1OCc1ccc(Cl)cc1 [Compound 3]	60	90	20	30	50	90	0	10	100	100	20	30	70	90	0	60	60	0	50	50	Plant response rating, Kochia (kochia (Kochia scoparia) [11]; 125 g ai/ha): 80; Plant response rating, Kochia (kochia (Kochia scoparia) [11]; 500 g ai/ha): 90; Plant response rating, Blackgrass ([12]; 125 g ai/ha): 20; Plant response rating, Blackgrass ([12]; 500 g ai/ha): 50; Plant response rating, Corn (corn (Zea mays); 125 g ai/ha): 10; Plant response rating, Corn (corn (Zea mays); 500 g ai/ha): 20; Plant response rating, Ducksalad [13]: 0; Plant response rating, Sedge, Umbrella [14]: 80; Plant response rating, Foxtail, Giant ([15]; 125 g ai/ha): 90; Plant response rating, Foxtail, Giant ([15]; 500 g ai/ha): 100; Plant response rating, Ragweed ([16]; 125 g ai/ha): 0; Plant response rating, Ragweed ([16]; 500 g ai/ha): 10; Plant response rating, Foxtail, Giant ([17]; 125 g ai/ha): 60; Plant response rating, Foxtail, Giant ([17]; 500 g ai/ha): 70; Plant response rating, Pigweed ([18]; 125 g ai/ha): 90; Plant response rating, Pigweed ([18]; 500 g ai/ha): 90
